3 compounds from patent US20200239530A1, “COMPOUNDS AND METHODS OF MODULATING PROTEIN DEGRADATION” (Vividion Therapeutics, Inc., priority 2017, published 2020) can be followed below.

What all share (format): binding
One assay addresses T1, Q9H1A4 (Homo sapiens, UniProt Q9H1A4).
T1 construct: Cells were resuspended in cold PBS on ice and sonicated with a probe sonicator to achieve lysis; endogenous in cells
The experiment in a line: Competitive cysteine profiling, probe competition (Table 2B). From the text:
(§1) The following 96-well sample prep protocol was used for sample preparation.

In the next assay the target is T2, Q9BX70 (Homo sapiens, UniProt Q9BX70).
T2 construct: 200 μL of lysate containing 5 mg/ml proteome was treated with 2 μL of 100× compound stock; endogenous in cells
Described as above.
Text: as §1

The next assay has as its target T3, Q9P203 (Homo sapiens, UniProt Q9P203).
T3 construct: 200 μL of lysate containing 5 mg/ml proteome was treated with 2 μL of 100× compound stock; endogenous in cells
T3 sequence (Q9P203 1-1132): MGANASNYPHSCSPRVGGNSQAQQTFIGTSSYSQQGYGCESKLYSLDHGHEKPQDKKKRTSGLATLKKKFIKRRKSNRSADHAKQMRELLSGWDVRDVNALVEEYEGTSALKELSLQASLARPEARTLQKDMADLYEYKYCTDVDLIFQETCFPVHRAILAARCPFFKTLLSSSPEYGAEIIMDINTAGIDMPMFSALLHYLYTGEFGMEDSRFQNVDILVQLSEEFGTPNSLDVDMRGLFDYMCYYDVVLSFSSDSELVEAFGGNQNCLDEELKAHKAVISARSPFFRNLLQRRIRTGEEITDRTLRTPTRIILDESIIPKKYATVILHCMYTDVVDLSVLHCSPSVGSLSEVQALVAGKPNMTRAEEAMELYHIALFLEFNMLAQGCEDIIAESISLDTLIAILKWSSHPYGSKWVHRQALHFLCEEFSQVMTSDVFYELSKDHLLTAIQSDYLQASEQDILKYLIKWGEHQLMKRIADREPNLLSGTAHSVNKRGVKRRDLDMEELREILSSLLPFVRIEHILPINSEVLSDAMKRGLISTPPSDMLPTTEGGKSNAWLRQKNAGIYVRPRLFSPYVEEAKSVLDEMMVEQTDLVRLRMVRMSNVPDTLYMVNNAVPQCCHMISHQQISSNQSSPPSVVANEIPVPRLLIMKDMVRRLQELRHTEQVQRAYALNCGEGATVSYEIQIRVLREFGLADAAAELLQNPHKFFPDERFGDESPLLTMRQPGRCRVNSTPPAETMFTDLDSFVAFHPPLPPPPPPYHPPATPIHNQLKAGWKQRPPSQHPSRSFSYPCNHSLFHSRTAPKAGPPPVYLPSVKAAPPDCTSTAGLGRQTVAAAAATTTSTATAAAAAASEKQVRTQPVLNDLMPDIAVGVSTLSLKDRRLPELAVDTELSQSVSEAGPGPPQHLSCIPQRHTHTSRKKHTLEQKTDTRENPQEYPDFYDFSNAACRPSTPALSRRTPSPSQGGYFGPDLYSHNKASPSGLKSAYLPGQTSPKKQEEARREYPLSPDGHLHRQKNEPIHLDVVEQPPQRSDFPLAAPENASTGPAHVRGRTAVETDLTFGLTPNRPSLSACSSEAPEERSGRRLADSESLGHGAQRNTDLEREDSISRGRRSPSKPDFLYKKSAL
Described as above.
Text: as §1

Assay [1] addresses T4, cysteine residue illustrated in Table 1A or Table 2A (Homo sapiens, UniProt Q8TEB1).
T4 construct: Cells were resuspended in cold PBS on ice and sonicated with a probe sonicator to achieve lysis; endogenous in cells
The experiment in a line: Competitive cysteine profiling of cell lysate with desthiobiotin iodoacetamide probe (96-well sample prep). As to conditions: UniProt Q8TEB1; 100 uM. Here is the method: In some embodiments, the solution sample (e.g., cell sample, cell lysate sample, or comprising isolated proteins) is incubated with a compound of Formula (I) for analysis of protein-probe interactions. In some instances, the solution sample (e.g., cell sample, cell lysate sample, or comprising isolated proteins) is further incubated in the presence of an additional compound probe prior to addition of the compound of Formula (I). […] In such instances, the solution sample is incubated with a probe and a ligand for competitive protein profiling analysis.
as §1
Cells were resuspended in cold PBS on ice and sonicated with a probe sonicator to achieve lysis. 200 μL of lysate containing 5 mg/ml proteome was treated with 2 μL of 100× compound stock in a 2-mL deep-well plate. The treated lysate was subsequently incubate at 25° C. for 1 hr with shaking at 600 rpm. The treated lysate was further incubated with 2 μL of 10 mM desthiobiotin iodoacetamide probe at 25° C. for 1 hr with shaking at 600 rpm. Next, the lysate was further treat with 20 μL of solution of PBS containing 11 mM MgSO4 and 2.5% Turbonuclease stock and incubated at 25° C. for 20 minutes with shaking at 600 rpm. 1.7 mL ice-cold acetone was added to each well and incubated at −20° C. for 2 hr, followed by max speed (4200 rpm) spin for 45 min. Acetone was then decanted and the plates were blotted to remove acetone. The plates were then dried in open air for 20 minutes. After drying, the plates were then covered with foil seal and stored at −80° C. overnight.
The next day, samples were re-suspended in 90 μL of solution of 9M urea, 50 mM ammonium bicarbonate and 10 mM DTT by incubating at 65C for 20 min with shaking at 1500 rpm. Next, samples were cooled to 37° C. and then 10 μL of 500 mM iodoacetamide solution (92.48 mg/ml) was added. The samples were then incubated at 37° C. for 30 min with shaking at 600 rpm.
ZEBA desalting plates were equilibrated 4 times using 250 μL of 2M urea, 50 mM ammonium bicarbonate solution followed by centrifugation at 1500 rpm for 2 minutes. After equilibration was complete, samples were applied to ZEBA desalting plate and spin at 1500 rpm for 2 min on top of 1 mL 96-well deep-well collection plate to buffer exchange samples. 4 μL of solution containing 25 mM CaCl2 and 0.25 mg/mL trypsin was added to the plate and the plate was then incubated at 37° C. for 2 hrs with shaking at 600 rpm. 300 μL of solution containing 5% high-capacity streptavidin agarose slurry in 25 mM Tris-HCl pH 7.5, 150 mM NaCl, and 0.1% NP-40 then added. The plate was incubated at 25° C. for 2 hrs with shaking at 600 rpm. Samples were transferred to 25 μm filter plate and spin at 1000 rpm for 2 min. Samples were then washed 3 times with 0.75 mL of wash buffer (25 mM Tris-HCl pH 7.5, 150 mM NaCl, and 0.1% NP-40) followed by washing 3 times with 0.75 mL PBS, and then 4 times with 0.75 mL water. After the washing step, samples were eluted into polypropylene 96-well plate by addition of 250 µL of 50% MeCN/water, 0.1% formic acid and allowed to gravity drip for 10 min, followed by centrifugation at 1000 rpm for 2 min. Speedvac was used to dry the plates at about 45° C. for […]. Then the plates were covered with foil seal and stored at −20° C.
Samples were resuspended by addition of 20 μl of 12.5% ACN, 0.1% formic acid solution, covered with foil seal, and incubated at 42° C. for 10 minutes with shaking at 600 rpm. Then add 30 μL of 0.1% formic acid solution was added and the plate was covered and incubated at 42° C. for 10 minutes with shaking at 600 rpm. Seal plate was then sealed with a 96-well silicon mat for analysis.

Where two headings read alike, the source gives them in different places.

For `COc1ccc2c(c1)CCCN2C(=O)CCl` [KB02], the “KB02_100 uM_percent_inhibition” value at Q9H1A4 (100 uM) amounted to 21%. In addition, the inhibition at 100 µM worked out at 24% at Q9H1A4 (read-out: KB02_100 uM_percent_inhibition) and 4% on Q9BX70 (100 uM, read-out: KB02_100 uM_percent_inhibition). For the same compound, the “KB02_500 uM_percent_inhibition” value at Q9P203 (500 uM) is recorded as 17%. For the same compound, at Q9P203 (read-out: KB02_500 uM_percent_inhibition), the inhibition at 500 µM turned out to be 12%.
Regarding `C=CC(=O)N(c1ccccc1)c1ccc(Br)cc1` [KB05], in assay [1], the “KB05_100 uM_percent_inhibition” value was 38%. In addition, the inhibition at 100 µM on Q9H1A4 (read-out: KB05_100 uM_percent_inhibition) came out at 29%.
Consider `O=C(CCl)Nc1cc(C(F)(F)F)cc(C(F)(F)F)c1` [KBO3], for which the “KB03_100 uM_percent_inhibition” value in assay [1] is on record as 43%. The “KB03_500 uM_percent_inhibition” value turned out to be 40% at Q9BX70 (500 uM) and 13% at Q9P203 (500 uM).
